# Assay results: patent publication US20090291857A1, “METHODS TO IDENTIFY INHIBITORS OF THE UNFOLDED PROTEIN RESPONSE” (THE BOARD OF TRUSTEES OF THE LELAND STANFORD JUNIOR …, priority 2006, published 2009)
# Tests used:
# IRE1α = target: T1, IRE1α (Homo sapiens, UniProt O75460); assay: IRE1α expression and kinase function (phospho-IRE1α immunoblot); format: cell-based
# T1 construct: endogenous in cells; host or cells: HT1080
# Experimental: Cells (2×10^6) were cultured in 10-cm dishes, collected using a cell scraper at 4° C., and lysed by addition of 150 μl cell lysis buffer [50 mM Tris pH 7.4, 150 mM NaCl, 10% glycerol, 0.5% Triton X-100. 0.5% NP-40, 2 mM Na3VO4, 20 mM beta-glycerophosphate, 10 mM NaF, 1 mM DTT, 1 mM PMSF). Lysates were centrifuged for 5 min at 10,000×g, and proteins (˜40 μg) were resolved by SDS-PAGE followed by semi-dry transfer to nitrocellulose membranes. Membranes were blocked in TBS-5% milk supplemented with 0.1% Tween-20. The blots were then probed overnight with relevant antibodies, washed, and incubated for 2 hours with species-specific secondary antibodies conjugated to horseradish peroxidase. After washing in block solution, immunoreactive material was detected by enhanced chemiluminescence (SuperSignal West Dura Extended, Pierce, Inc., Rockville, Ill.).
# HT1080 cells were exposed to DMSO vehicle (lane 1), irestatin 9389 (2.5 μM; lane 2) for 16 hours or Tm (5 μg/ml; lane 3) for 8 hours. Following treatments, cells were harvested, lysed, and analyzed by immunoblotting using anti-Grp78 antibody (top) or anti-actin (bottom) as a loading control. […] Cell lysates were analyzed by Western immunoblotting using anti-IRE1α (bottom) or anti-phospho-IRE1α antibodies (top). […] Lysates were analyzed by Western blot using antisera specific for phospho-JNK1 (top) or total JNK1 (bottom). […]
# [1] = Analysis of blood chemistry and cell composition; format: in vivo, mouse
# Experimental: Complete blood counts (CBC's) and clinical chemistry panels were performed on blood obtained by cardiac puncture after euthanasia with CO2. Gross necropsies were performed, all major viscera were harvested, fixed in 10% buffered neutral formalin, routinely processed for paraffin embedding, and stained with hematoxylin and eosin (H&E). Sections were analyzed by a board-certified veterinary pathologist (DMB).
# The increased sensitivity of irestatin-treated cells to hypoxic stress in vitro indicate that selective inhibition of IRE1α signaling could impact tumor growth. […] In contrast, XBP-1s was not detected in normal pancreas specimens (0/20), and infrequently observed in chronic pancreatitis (1/29) (FIG. 15). To explore the effects to irestatin 9389 in vivo, we first established animal dosing parameters using real-time bioluminescence imaging of SCID mice that had been implanted subcutaneously (s.c.) with tumor cells stably expressing the XBP-luciferase reporter. […] The XBP-luciferase signal returned to basal levels by 24 hours after treatment. […] (FIG. 16).
# T1 sequence (O75460 19-977): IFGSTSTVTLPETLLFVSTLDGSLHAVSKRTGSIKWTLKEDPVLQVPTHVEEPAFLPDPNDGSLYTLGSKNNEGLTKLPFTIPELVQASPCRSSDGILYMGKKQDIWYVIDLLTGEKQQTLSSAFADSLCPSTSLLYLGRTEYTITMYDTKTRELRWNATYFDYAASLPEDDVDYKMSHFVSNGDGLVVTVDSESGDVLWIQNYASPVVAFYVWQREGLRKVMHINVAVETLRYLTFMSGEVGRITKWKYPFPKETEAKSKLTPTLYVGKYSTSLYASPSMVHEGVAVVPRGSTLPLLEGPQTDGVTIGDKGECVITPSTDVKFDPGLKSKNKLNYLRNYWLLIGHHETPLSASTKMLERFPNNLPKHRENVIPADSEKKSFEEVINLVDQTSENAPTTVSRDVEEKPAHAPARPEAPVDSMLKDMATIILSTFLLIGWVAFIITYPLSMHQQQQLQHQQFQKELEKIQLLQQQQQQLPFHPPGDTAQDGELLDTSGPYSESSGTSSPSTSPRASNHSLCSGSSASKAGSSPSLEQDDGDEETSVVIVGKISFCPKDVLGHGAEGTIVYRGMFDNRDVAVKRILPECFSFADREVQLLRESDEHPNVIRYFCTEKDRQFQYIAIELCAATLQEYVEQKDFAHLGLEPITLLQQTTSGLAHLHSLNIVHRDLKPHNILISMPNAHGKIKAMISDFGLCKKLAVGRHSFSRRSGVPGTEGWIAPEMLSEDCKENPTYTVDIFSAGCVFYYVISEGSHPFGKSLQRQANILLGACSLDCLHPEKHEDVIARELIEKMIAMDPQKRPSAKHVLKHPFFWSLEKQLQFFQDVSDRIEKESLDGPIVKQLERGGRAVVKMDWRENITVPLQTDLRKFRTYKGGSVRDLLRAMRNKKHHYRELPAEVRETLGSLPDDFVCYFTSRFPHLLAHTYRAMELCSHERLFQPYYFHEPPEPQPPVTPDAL
structure (smiles),measurement,setting,value
Cc1csc(NC(=O)CSc2nc3c(c(C(F)(F)F)c2C#N)CCC3)n1 [Compound 9389],total level of IRE1α,"IRE1α; 2.5 μM, 16 hours",no significant changes
same,levels of phospho-IRE1α after Tm,"IRE1α; 16 hours preincubation 2.5 μM, then Tm 5 μg/ml",rapid increase in levels of phospho-IRE1α
same,fasting blood glucose levels versus vehicle,[1]; 50 mg/kg,no significant difference
same,HCT,"[1]; mean, irestatin-treated mice, complete blood count",47%
same,Total Bilirubin,"[1]; mean, irestatin-treated mice, terminal cardiac blood",0.3 mg/dL
